Measurements published in patent US8952024B2, “Herbicidal pyrimidone derivatives” (E I du Pont de Nemours and Company, priority 2009, dated 2015).

Experiments:
Assay in all cases: Test B pre-/postemergence plant response
Type in all cases: in vivo
[1] = system: blackgrass (Alopecurus myosuroides); settings: for Blackgrass plant response rating (0 to 100 scale): 62 g ai/ha, 0 is no effect, 13 to 15 days
Outline: (§1)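 Seeds were sown in loam soil/sand blend and treated preemergence with compound in non-phytotoxic solvent mixture containing surfactant; postemergence sprays, same formulation, went onto plants 2 to 18 cm (1- to 4-leaf stage) in peat-based planting medium. Greenhouse 13 to 15 days, then visual rating versus untreated controls, 0 (no effect) to 100 (complete control).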

[2] = system: ragweed (common ragweed, Ambrosia elatior); settings: for Ragweed plant response rating (0 to 100 scale): 62 g ai/ha, 0 is no effect, 13 to 15 days
Outline: as §1

[3] = system: kochia (Kochia scoparia); settings: for Kochia plant response rating (0 to 100 scale): 62 g ai/ha, 0 is no effect, 13 to 15 days
Outline: as §1

[4] = system: bermudagrass (Cynodon dactylon); settings: for Bermudagrass plant response rating (0 to 100 scale): 62 g ai/ha, 0 is no effect, 13 to 15 days
Outline: as §1

[5] = system: large crabgrass (Digitaria sanguinalis); settings: for Crabgrass, Large plant response rating (0 to 100 scale): 62 g ai/ha, 0 is no effect, 13 to 15 days
Outline: as §1

[6] = system: velvetleaf (Abutilon theophrasti); settings: for Velvetleaf plant response rating (0 to 100 scale): 62 g ai/ha, 0 is no effect, 13 to 15 days
Outline: as §1

[7] = system: giant foxtail (Setaria faberii); settings: for Foxtail, Giant plant response rating (0 to 100 scale): 62 g ai/ha, 0 is no effect, 13 to 15 days
Outline: as §1

[8] = system: johnsongrass (Sorghum halepense); settings: for Johnsongrass plant response rating (0 to 100 scale): 62 g ai/ha, 0 is no effect, 13 to 15 days
Outline: as §1

[9] = system: downy bromegrass (Bromus tectorum); settings: for Bromegrass, Downy plant response rating (0 to 100 scale): 62 g ai/ha, 0 is no effect, 13 to 15 days
Outline: as §1

[10] = system: green foxtail (Setaria viridis); settings: for Foxtail, Green plant response rating (0 to 100 scale): 62 g ai/ha, 0 is no effect, 13 to 15 days
Outline: as §1

[11] = system: Surinam grass (Brachiaria decumbens); settings: for Surinam Grass plant response rating (0 to 100 scale): 62 g ai/ha, 0 is no effect, 13 to 15 days
Outline: as §1

[12] = system: goosegrass (Eleusine indica); settings: for Goosegrass plant response rating (0 to 100 scale): 62 g ai/ha, 0 is no effect, 13 to 15 days
Outline: as §1

[13] = system: corn (Zea mays); settings: for Corn plant response rating (0 to 100 scale): 62 g ai/ha, 0 is no effect, 13 to 15 days
Outline: as §1

[14] = system: yellow nutsedge (Cyperus esculentus); settings: for Nutsedge, Yellow plant response rating (0 to 100 scale): 62 g ai/ha, 0 is no effect, 13 to 15 days
Outline: as §1

[15] = system: woolly cupgrass (Eriochloa villosa); settings: for Cupgrass, Woolly plant response rating (0 to 100 scale): 62 g ai/ha, 0 is no effect, 13 to 15 days
Outline: as §1

[16] = system: lambsquarters (Chenopodium album); settings: for Lambsquarters plant response rating (0 to 100 scale): 62 g ai/ha, 0 is no effect, 13 to 15 days
Outline: as §1

[17] = system: Italian ryegrass (Lolium multiflorum); settings: for Ryegrass, Italian plant response rating (0 to 100 scale): 62 g ai/ha, 0 is no effect, 13 to 15 days
Outline: as §1

[18] = 31 g ai/ha, postemergence, scale 0 to 100, 0 is no effect, 100 is complete control
[19] = postemergence, 100 is complete control
[20] = Postemergence, 125 g ai/ha, visual rating after 13 to 15 days, scale 0 (no effect) to 100 (complete control)
[21] = Postemergence, 250 g ai/ha, scale 0 to 100 (0 no effect, 100 complete control)

CCCn1c(-c2ccsc2)ncc(C(=O)C2=C(O)CCCC2=O)c1=O [Compound 93]
65: Plant response rating, Ragweed [2, 18] | Plant response rating, Kochia [3, 18] | Surinam Grass plant response rating (0 to 100 scale) [11, 19] | Goosegrass plant response rating (0 to 100 scale) [12, 19] | Plant response rating, Cupgrass, Woolly [15, 20]
5: Blackgrass plant response rating (0 to 100 scale) [1, 19]
70: Plant response rating, Crabgrass, Large [5, 18] | Plant response rating, Foxtail, Giant [7, 18] | Plant response rating, Johnsongrass [8, 21] | Plant response rating, Surinam Grass [11, 21] | Plant response rating, Nutsedge, Yellow [14, 21] | Plant response rating, Cupgrass, Woolly [15, 21]
80: Crabgrass, Large plant response rating (0 to 100 scale) [5, 19] | Plant response rating, Crabgrass, Large [5, 20] | Foxtail, Giant plant response rating (0 to 100 scale) [7, 19]
10: Plant response rating, Johnsongrass [8, 18] | Johnsongrass plant response rating (0 to 100 scale) [8, 19]
95: Lambsquarters plant response rating (0 to 100 scale) [16, 19]
50: Plant response rating, Foxtail, Green [10, 18] | Plant response rating, Surinam Grass [11, 18] | Plant response rating, Corn [13, 20]
0: Plant response rating, Blackgrass [1, 18] | Plant response rating, Bromegrass, Downy [9, 18] | Bromegrass, Downy plant response rating (0 to 100 scale) [9, 19] | Plant response rating, Bromegrass, Downy [9, 20] | Plant response rating, Bromegrass, Downy [9, 21] | Plant response rating, Corn [13, 18] | Plant response rating, Ryegrass, Italian [17, 18] | Ryegrass, Italian plant response rating (0 to 100 scale) [17, 19] | Plant response rating, Ryegrass, Italian [17, 21]
30: Plant response rating, Blackgrass [1, 20] | Plant response rating, Blackgrass [1, 21]
60: Plant response rating, Bermudagrass [4, 18] | Foxtail, Green plant response rating (0 to 100 scale) [10, 19] | Plant response rating, Goosegrass [12, 18] | Plant response rating, Corn [13, 21] | Nutsedge, Yellow plant response rating (0 to 100 scale) [14, 19]
75: Ragweed plant response rating (0 to 100 scale) [2, 19] | Bermudagrass plant response rating (0 to 100 scale) [4, 19] | Plant response rating, Goosegrass [12, 21]
98: Plant response rating, Ragweed [2, 21] | Plant response rating, Kochia [3, 21] | Plant response rating, Velvetleaf [6, 21] | Plant response rating, Lambsquarters [16, 21]
45: Corn plant response rating (0 to 100 scale) [13, 19] | Plant response rating, Nutsedge, Yellow [14, 18] | Plant response rating, Cupgrass, Woolly [15, 18] | Cupgrass, Woolly plant response rating (0 to 100 scale) [15, 19]
90: Plant response rating, Crabgrass, Large [5, 21] | Velvetleaf plant response rating (0 to 100 scale) [6, 19] | Plant response rating, Foxtail, Green [10, 21]
85: Kochia plant response rating (0 to 100 scale) [3, 19] | Plant response rating, Bermudagrass [4, 20] | Plant response rating, Bermudagrass [4, 21] | Plant response rating, Velvetleaf [6, 18] | Plant response rating, Foxtail, Giant [7, 21] | Plant response rating, Lambsquarters [16, 18]

CCCCCCn1c(-c2ccccc2)ncc(C(=O)C2=C(O)CCCC2=O)c1=O [Compound 94]
60: Foxtail, Green plant response rating (0 to 100 scale) [10, 19] | Surinam Grass plant response rating (0 to 100 scale) [11, 19]
20: Plant response rating, Blackgrass [1, 21] | Plant response rating, Nutsedge, Yellow [14, 18] | Nutsedge, Yellow plant response rating (0 to 100 scale) [14, 19]
15: Johnsongrass plant response rating (0 to 100 scale) [8, 19]
10: Blackgrass plant response rating (0 to 100 scale) [1, 19] | Plant response rating, Blackgrass [1, 20] | Plant response rating, Foxtail, Green [10, 18] | Plant response rating, Ryegrass, Italian [17, 21]
40: Plant response rating, Ragweed [2, 18]
0: Plant response rating, Bromegrass, Downy [9, 18] | Bromegrass, Downy plant response rating (0 to 100 scale) [9, 19] | Plant response rating, Bromegrass, Downy [9, 20] | Plant response rating, Bromegrass, Downy [9, 21] | Plant response rating, Corn [13, 18] | Plant response rating, Ryegrass, Italian [17, 18] | Ryegrass, Italian plant response rating (0 to 100 scale) [17, 19]
95: Lambsquarters plant response rating (0 to 100 scale) [16, 19]
45: Ragweed plant response rating (0 to 100 scale) [2, 19] | Plant response rating, Johnsongrass [8, 21] | Plant response rating, Goosegrass [12, 18]
70: Plant response rating, Crabgrass, Large [5, 18] | Velvetleaf plant response rating (0 to 100 scale) [6, 19] | Goosegrass plant response rating (0 to 100 scale) [12, 19] | Plant response rating, Corn [13, 20] | Plant response rating, Cupgrass, Woolly [15, 21]
80: Plant response rating, Ragweed [2, 21] | Plant response rating, Bermudagrass [4, 18] | Bermudagrass plant response rating (0 to 100 scale) [4, 19] | Plant response rating, Velvetleaf [6, 21] | Plant response rating, Foxtail, Green [10, 21] | Plant response rating, Surinam Grass [11, 21] | Plant response rating, Corn [13, 21] | Plant response rating, Lambsquarters [16, 18]
98: Plant response rating, Bermudagrass [4, 20] | Plant response rating, Bermudagrass [4, 21] | Plant response rating, Foxtail, Giant [7, 21]
85: Plant response rating, Goosegrass [12, 21]
65: Plant response rating, Foxtail, Giant [7, 18] | Plant response rating, Nutsedge, Yellow [14, 21] | Cupgrass, Woolly plant response rating (0 to 100 scale) [15, 19] | Plant response rating, Cupgrass, Woolly [15, 20]
90: Plant response rating, Kochia [3, 21] | Plant response rating, Crabgrass, Large [5, 20] | Plant response rating, Crabgrass, Large [5, 21]
75: Crabgrass, Large plant response rating (0 to 100 scale) [5, 19] | Foxtail, Giant plant response rating (0 to 100 scale) [7, 19]
100: Plant response rating, Lambsquarters [16, 21]
5: Plant response rating, Blackgrass [1, 18]
55: Kochia plant response rating (0 to 100 scale) [3, 19] | Corn plant response rating (0 to 100 scale) [13, 19]
